Marks after values point to notes of the source that are not given here.
Experiments:
[1] = tested on: Burkholderia cepacia ATCC 25416; assay: Reduction of bacterial load by continuous addition of CO2, plate count after contact time; type: cell-based; details: n = 2
Description: Each microbe was grown in specified growth conditions (Table 7) using 40 mL of broth media in a sterile 250 mL bottle shaken at 100 RPM. Each microbe was subcultured from broth culture to an agar plate and incubated in specified growth conditions (Table 7). […] 20 mL of reverse osmosis water solution with bacteria was dispensed to a 25 mL hydrothermal synthesis autoclave reactor vessel (25 mL total volume vessel) attached to a continuous CO2 delivery system. The vessels were left connected to the CO2 delivery system at specific contact times at room temperature (25-27° C.). 20 mL of reverse osmosis water with bacteria and filter sterilized reverse osmosis water (no bacteria) were placed in a 150 mL sterile plastic bottle (untreated controls). The untreated controls were left for the same contact time at room temperature (25-27° C.) as CO2 treated vessels. Each microorganism was plated on specified agar media (Table 7) to enumerate bacteria after contact period. Tables 8-10 show the bacterial load reduction achieved after continuous addition of pressurized gas comprising CO2 to contaminated reverse osmosis water or a contaminated solution of reverse osmosis water and Triton X-100.

[2] = tested on: Burkholderia cepacia (ATCC 25416); assay: Reduction of bacterial load by adding CO2 in a pressurized vessel (whipped cream dispenser), plate count after 72 hr; type: cell-based; details: for Recovered Bacteria, Average CFU/mL, With CO2: 72 hr, 25° C., n = 3
Description: Burkholderia cepacia (ATCC 25416) was grown overnight in 40 mL trypticase soy broth in 250 mL bottle shaken at 100 RPM at 30° C. […] 100 mL of either solution were placed in a whipped cream dispenser (670 mL total volume container), and then different amounts of carbon dioxide (CO2) were injected into the container.
100 mL of each solution were then placed in a 150 mL sterile plastic bottle (untreated control). Both samples were placed on a wrist action shaker for 2 hr at 100 rpm at room temperature (25° C.), and then placed on an orbital shaker for 70 hr at 100 rpm at room temperature (25° C.). The total time each sample was at room temperature (25° C.) was 72 hr. After 72 hr, each sample was plated on trypticase soy agar to enumerate bacterial growth after contact period.

[3] = pH measurements of preservative free wet wipe formulation after addition of CO2 and exposure to 1 atm (FIG. 5); type: physicochemical
Description: FIG. 5 is an exemplary embodiment depicting a graph of pH measurements of 100 mL of preservative free wet wipe formulation after addition of 8.2 g of CO2, and subsequent exposure to 1 atm (20° C.) in accordance with the present disclosure.

[4] = tested on: Escherichia coli ATCC 8739; assay: Reduction of microorganism load by continuous addition of CO2, plate count after contact time; type: cell-based; details: 300 psi CO2 continuously, reverse osmosis water, n = 2
Description: (§1) Each microbe was grown in specified growth conditions (Table 7) using 40 mL of broth media in a sterile 250 mL bottle shaken at 100 RPM. Each microbe was subcultured from broth culture to an agar plate and incubated in specified growth conditions (Table 7). 100 μL of bacterial or fungal suspension matching the turbidity of a 0.5 or 1 MacFarland Standard were added to 100 mL of filter-sterilized reverse osmosis water (final concentration approximately 1×10^6 or 5×10^1 CFU/mL). 20 mL of reverse osmosis water solution with bacteria was dispensed to a 25 mL hydrothermal synthesis autoclave reactor vessel (25 mL total volume vessel) attached to a continuous CO2 delivery system. The vessels were left connected to the CO2 delivery system at specific contact times at room temperature (25-27° C.). 20 mL of reverse osmosis water with bacteria and filter sterilized reverse osmosis water (no bacteria) were placed in a 150 mL sterile plastic bottle (untreated controls). The untreated controls were left for the same contact time at room temperature (25-27° C.) as CO2 treated vessels. Each microorganism was plated on specified agar media (Table 7) to enumerate bacteria after contact period. Tables 8-10 show the bacterial load reduction achieved after continuous addition of pressurized gas comprising CO2 to contaminated reverse osmosis water or a contaminated solution of reverse osmosis water and Triton X-100.

[5] = tested on: Pseudomonas aeruginosa ATCC 9027; assay: as above; type: cell-based; details: 300 psi CO2 continuously, reverse osmosis water, n = 2
Description: as §1

[6] = tested on: Staphylococcus aureus ATCC 6538; assay: as above; type: cell-based; details: 300 psi CO2 continuously, reverse osmosis water, n = 2
Description: as §1

[7] = tested on: Candida albicans ATCC 10231; assay: as above; type: cell-based; details: 300 psi CO2 continuously, reverse osmosis water, n = 2
Description: as §1

Question: With O=C=O [CO2, carbon dioxide] as the compound, how does the “Average Recovered CFU/mL, With CO2” value ([1]; 100 psi CO2 continuously, reverse osmosis water and 0.2% (v/v) Triton X-100, approximately 1.0 × 10^4 inoculum, 15 minutes) read?
Answer: The value was 2.1 × 10^3 CFU/mL.

Question: What about the “Average Recovered CFU/mL, With CO2” value ([1]; 100 psi CO2 continuously, reverse osmosis water and 0.2% (v/v) Triton X-100, approximately 1.0 × 10^4 inoculum, 30 minutes) of the same compound?
Answer: The value was 1.2 × 10^3 CFU/mL.

Question: What about the “Average Recovered CFU/mL, With CO2” value ([1]; 100 psi CO2 continuously, reverse osmosis water and 0.2% (v/v) Triton X-100, approximately 1.0 × 10^4 inoculum, 60 minutes) of the same compound?
Answer: The value was 6.3 × 10^2 CFU/mL.

Question: What about the “Average Recovered CFU/mL (Standard Deviation), With CO2” value ([1]; 300 psi CO2 continuously, 20 mL reverse osmosis water, 0.5 hours) of the same compound?
Answer: The value was 5.0 × 10^5 (1.0 × 10^5) CFU/mL.

Question: And the “Average Recovered CFU/mL (Standard Deviation), With CO2” value ([1]; 300 psi CO2 continuously, 20 mL reverse osmosis water, 1 hour)?
Answer: The value was 4.5 × 10^5 (2.5 × 10^5) CFU/mL.

Question: What about the “Average Recovered CFU/mL (Standard Deviation), With CO2” value ([1]; 300 psi CO2 continuously, 20 mL reverse osmosis water, 1.5 hours) of the same compound?
Answer: The value was 5.0 × 10^5 (2.0 × 10^5) CFU/mL.

Question: What about the “Average Recovered CFU/mL (Standard Deviation), With CO2” value ([1]; 300 psi CO2 continuously, 20 mL reverse osmosis water, 2 hours) of the same compound?
Answer: The value was 3.1 × 10^4 (7.0 × 10^3) CFU/mL.

Question: And the “Average Recovered CFU/mL (Standard Deviation), With CO2” value ([1]; 300 psi CO2 continuously, 20 mL reverse osmosis water, 2.5 hours)?
Answer: Its value is 8.0 × 10^3 (2.0 × 10^3) CFU/mL.

Question: What about the “Average Recovered CFU/mL (Standard Deviation), With CO2” value ([1]; 300 psi CO2 continuously, 20 mL reverse osmosis water, 3 hours) of the same compound?
Answer: Its value is <1 (n/a) CFU/mL.

Question: What about the “Average Recovered CFU/mL (Standard Deviation), With CO2” value ([1]; 300 psi CO2 continuously, 20 mL reverse osmosis water, 6 hours) of the same compound?
Answer: Its value is <1 (n/a) CFU/mL.

Question: What about the “Average Recovered CFU/mL (Standard Deviation), With CO2” value ([1]; 300 psi CO2 continuously, 20 mL reverse osmosis water, 24 hours) of the same compound?
Answer: Its value is <1 (n/a) CFU/mL.

Question: What about the “Average Recovered CFU/mL (Standard Deviation), With CO2” value ([1]; Table 9: 100 psi CO2 (approx. 0.231 mol/L), reverse osmosis water, 2 hours) of the same compound?
Answer: Its value is 2.3 × 10^4 (1.0 × CFU/mL.

Question: What about the “Average Recovered CFU/mL (Standard Deviation), With CO2” value ([1]; Table 9: 100 psi CO2 (approx. 0.231 mol/L), reverse osmosis water, 4 hours) of the same compound?
Answer: Its value is 1.2 × 10^4 (4.0 × CFU/mL.

Question: What about the “Average Recovered CFU/mL (Standard Deviation), With CO2” value ([1]; Table 9: 100 psi CO2 (approx. 0.231 mol/L), reverse osmosis water, 6 hours) of the same compound?
Answer: Its value is 1.2 × 10^4 (3.5 × CFU/mL.

Question: And the “Average Recovered CFU/mL (Standard Deviation), With CO2” value ([1]; Table 9: 200 psi CO2 (approx. 0.463 mol/L), reverse osmosis water, 2 hours)?
Answer: The value was 1.2 × 10^3 (1.5 × CFU/mL.

Question: What about the “Average Recovered CFU/mL (Standard Deviation), With CO2” value ([1]; Table 9: 200 psi CO2 (approx. 0.463 mol/L), reverse osmosis water, 4 hours) of the same compound?
Answer: The value was 1.0 × 10^2 (1.0 × CFU/mL.

Question: And the “Average Recovered CFU/mL (Standard Deviation), With CO2” value ([1]; Table 9: 200 psi CO2 (approx. 0.463 mol/L), reverse osmosis water, 6 hours)?
Answer: The value was 1.4 × 10^1 (<10) CFU/mL.

Question: And the “Average Recovered CFU/mL (Standard Deviation), With CO2” value ([1]; Table 9: 300 psi CO2 (approx. 0.694 mol/L), reverse osmosis water, 2 hours)?
Answer: Its value is 9.0 × 10^2 (1.0 × CFU/mL.

Question: And the “Average Recovered CFU/mL (Standard Deviation), With CO2” value ([1]; Table 9: 300 psi CO2 (approx. 0.694 mol/L), reverse osmosis water, 4 hours)?
Answer: Its value is 5.0 × 10^1 (5.0 × CFU/mL.

Question: And the “Average Recovered CFU/mL (Standard Deviation), With CO2” value ([1]; Table 9: 300 psi CO2 (approx. 0.694 mol/L), reverse osmosis water, 6 hours)?
Answer: The value was <10 (n/a) CFU/mL.

Question: And the “Average Recovered CFU/mL, With CO2” value ([1]; Table 10: 300 psi CO2 continuously, reverse osmosis water, 2 Hours)?
Answer: Its value is 1.3 × 10^3 CFU/mL.

Question: What about the “Average Recovered CFU/mL, With CO2” value ([1]; Table 10: 300 psi CO2 continuously, reverse osmosis water, 4 Hours) of the same compound?
Answer: Its value is 2.5 × 10^1 CFU/mL.

Question: And the “Average Recovered CFU/mL, With CO2” value ([1]; Table 10: 300 psi CO2 continuously, reverse osmosis water, 6 Hours)?
Answer: Its value is less than 10 CFU/mL.

Question: And the “Recovered Bacteria, Average CFU/mL, With CO2” value (shortened to “Recovered Bacteria”) ([2]; 8.2 g of CO2 to 100 mL preservative-free wet wipe formulation, approximately 1 × 10^6 CFU/mL)?
Answer: Its value is less than 10 CFU/mL.

Question: What about the “Recovered Bacteria” value ([2]; 8.2 g of CO2 to 100 mL reverse osmosis water, approximately 1 × 10^6 CFU/mL) of the same compound?
Answer: The value was 1.1 × 10^3 CFU/mL.

Question: And the “Recovered Bacteria” value ([2]; 8.2 g of CO2 to 100 mL reverse osmosis water, approximately 5 × 10^1 CFU/mL)?
Answer: The value was less than 10 CFU/mL.

Question: And the “Recovered Bacteria” value ([2]; 16.0 g of CO2 to 100 mL reverse osmosis water, approximately 1 × 10^5 CFU/mL)?
Answer: The value was less than 10 CFU/mL.

Question: And the “Recovered Bacteria” value ([2]; 23.7 g of CO2 to 100 mL reverse osmosis water, approximately 1 × 10^5 CFU/mL)?
Answer: Its value is less than 10 CFU/mL.

Question: And the “Microbial growth compared to no added CO2” value ([2]; pressurized gas comprising carbon dioxide added to contaminated preservative-free wet wipe formulation)?
Answer: The value was “greatly reduced microbial growth”.

Question: What about the “Microbial growth compared to no added CO2” value ([2]; pressurized gas comprising carbon dioxide added to contaminated water) of the same compound?
Answer: The value was “greatly reduced microbial growth”.

Question: What about the “Reduction of pH of wet wipe formulation” value ([3]; 100 mL preservative free wet wipe formulation after addition of 8.2 g of CO2 (FIG. 5)) of the same compound?
Answer: The value was “approximately 0.20 pH units”.

Question: And the “Dissipation of solubilized CO2 from wet wipe formulation” value ([3]; after exposure to atmospheric conditions (1 atm, 20° C.; FIG. 5))?
Answer: The value was “quickly dissipated”.

Question: And the “Average Recovered CFU/mL, With CO2” value ([4]; 2 Hours)?
Answer: Its value is 1.0 × 10^3 CFU/mL.

Question: And the “Average Recovered CFU/mL, With CO2” value ([4]; 4 Hours)?
Answer: The value was 2.5 × 10^2 CFU/mL.

Question: And the “Average Recovered CFU/mL, With CO2” value ([4]; 6 Hours)?
Answer: Its value is less than 10 CFU/mL.

Question: What about the “Average Recovered CFU/mL, With CO2” value ([5]; 2 Hours) of the same compound?
Answer: The value was 3.5 × 10^2 CFU/mL.

Question: What about the “Average Recovered CFU/mL, With CO2” value ([5]; 4 Hours) of the same compound?
Answer: Its value is less than 10 CFU/mL.

Question: And the “Average Recovered CFU/mL, With CO2” value ([5]; 6 Hours)?
Answer: The value was less than 10 CFU/mL.

Question: And the “Average Recovered CFU/mL, With CO2” value ([6]; 2 Hours)?
Answer: Its value is 6.0 × 10^2 CFU/mL.

Question: What about the “Average Recovered CFU/mL, With CO2” value ([6]; 4 Hours) of the same compound?
Answer: Its value is 1.3 × 10^2 CFU/mL.

Question: And the “Average Recovered CFU/mL, With CO2” value ([6]; 6 Hours)?
Answer: The value was less than 10 CFU/mL.

Question: And the “Average Recovered CFU/mL, With CO2” value ([7]; 2 Hours)?
Answer: Its value is 5.3 × 10^2 CFU/mL.

Question: What about the “Average Recovered CFU/mL, With CO2” value ([7]; 4 Hours) of the same compound?
Answer: Its value is 1.0 × 10^2 CFU/mL.

Question: And the “Average Recovered CFU/mL, With CO2” value ([7]; 6 Hours)?
Answer: Its value is less than 10 CFU/mL.
